{"source": "patent EP1254251B1", "about": "“NEUROSTEROIDS AS MARKERS FOR ALZHEIMER'S DISEASE” (Georgetown University, priority 2000, dated 2001)", "key": {"MGM-1": {"tested_on": "MGM-1", "assay": "Alternative pathway D synthesis in cells treated with FeSO4, or with Ab with or without Vitamin E (TLC, RIA)", "format": "cell-based, human", "conditions": "MGM-1, 50 mM Aβ, vs control, p < 0.01", "experimental": "Alternative Pathway: To determine the amount ofD synthesized by the alternative pathway cells were treated as previously described. (15). In brief, cells were washed and oligodendrocytes and astrocytes were incubated with increasing concentrations of FeSO4 in serum free media, with and without SU 10603 (10 mM); neurons were incubated in serum free media containing 5 mM P plus FeSO4 with and without 10 mM SU 10603. After two hours, cells and media were homogenized and extracted as described above. Extracts were run on C 18 TLC plates (Whatman, Clifton, NJ) with a mobile phase of 95% methanol (v/v); radiolabeled standards for P, progesterone, and D were run on each plate, and appropriate steroid fractions were collected for each sample. TLC fractions were extracted with 2 ml diethyl ether (Fluka, New York) and evaporated. TLC extracts were assayed by specific radioimmunoassay (RIA). […]\nRIA using antibodies specific for each steroid (ICN Pharmaceuticals, Costa Mesa, CA Mesa) was used to measure P, progesterone and D levels. The data were analyzed using the IBM-PC RIA Data Reduction Program (version 4.1) from Jaffe and Associates (Silver Spring, MD). Levels of β-amyloid species in AD and control brain samples were analyzed using 4G8 (Senetex PLC, Napa, CA), a monoclonal antibody to β-amyloid peptide that recognizes amino acids 17-24. […]"}, "MGM-1 human glioma cells": {"tested_on": "MGM-1 human glioma cells", "assay": "ROS measurement by 2,7-DCF fluorescence", "format": "cell-based", "conditions": "MGM-1, 50 mM Aβ, vs control, p < 0.01", "experimental": "β-Amyloid Regulation of the Alternative Pathway: MGM-1 cells were plated on 96 well (~5,000 cells/well, for ROS measurements) or 24 well (~15,000 cells/well, for D measurements) plates (Corning Costar, Acton, MA). At the same time, 1 mg Ab (Ab (1-42), AnaSpec Inc., San Jose, CA) was dissolved in 0.5 ml serum-free media and incubated at 4C for aggregation. 24 hours later, cells were incubated in DMEM with 10% fetal bovine serum and […] or […] and 10 mM Vitamin E (Sigma, St. Louis, MO). Control samples were incubated in DMEM with 10% FBS. Cells were incubated at 37C and 6% CO2 for at least 12 hours and processed for ROS generation (see below) or D synthesis as described above for the alternative experiments.\nTreatment media was removed and the cells were washed with PBS. The fluorescent probe 2,7- dichlorofluorescin diacetate (2,7-DCF, Molecular Probes, Inc., Eugene, OR) was used to measure levels of oxidative stress (48). Cells were incubated with […] 2,7-DCF, fluorescence was measured at 485nm/535nm using the Victor^2 Multilabel Counter (EG&G Wallac, Gaithersburg, MD) and values of cellular fluorescence were obtained."}}, "data": [{"substance": "Ab: Ab (1-42), AnaSpec Inc.; β-amyloid, a component of Alzheimer's disease plaques", "values": [{"measurement": "D levels", "setting": "MGM-1", "result": "increased D levels significantly"}, {"measurement": "2,7-DCF fluorescence (ROS)", "setting": "MGM-1 human glioma cells", "result": "significant increase"}]}]}
